Laboratory results reported in patent publication EP0407583A1, “DERIVATIVES OF DICHLOR[…] ACYLAMIDO[…] AND INSECTICIDAL, FU[…] HEMATOCIDAL PREPARATIONS BASED ON THEM” (priority 1989, dated 1990).

Assays:
[1] = system: Rhyzoctonia violaceae; experiment: Inhibition of phytopathogenic fungi, field test on affected potato plants; type: in vivo; conditions: 5 m^2 plots of affected potato plants sprayed
Description: (§1) For field tests the plots of 5 m^2 in size with potato plants affected by Fusarium moniliforme, Venturia inaequalis, Rhyzoctonia violaceae, Botrytis cinereae, Verticillium albo-atrum, Diplodia zeae, Fusarium oxysporum, Rhoma betae, Rhyzoctonia aderholdii, Aspergillus niger, Alternaria sobani, Botrytis allii, Aspergillus fumigatis, Fusarium culmorum, Penicillium cyclopium were sprayed with the fungicide of the invention. To compare, the similar plots of the affected potato plants were aprayed with the known compositions indicated above.

[2] = system: Botrytis cinereae; experiment: as above; type: in vivo; conditions: 5 m^2 plots of affected potato plants sprayed
Description: as §1

[3] = system: Venturia inaequalis; experiment: as above; type: in vivo; conditions: 5 m^2 plots of affected potato plants sprayed
Description: as §1

[4] = system: Fusarium moniliforme; experiment: as above; type: in vivo; conditions: 5 m^2 plots of affected potato plants sprayed
Description: as §1

[5] = system: Verticillium albo-atrum; experiment: as above; type: in vivo; conditions: 5 m^2 plots of affected potato plants sprayed
Description: as §1

[6] = system: Rhyzoctonia violaceae; experiment: Inhibition of phytopathogenic fungi growth, laboratory test on potato-dextrose agar; type: cell-based; conditions: active principle 0.01 % by mass in potato-dextrose agar
Protocol: (§2) A fungicidal composition based on this compound was prepared in the form of a 0.01% solution thereof in distilled water. A fungicidal action of the composition, according to the invention, was tested for inhibition of vegetative fungi growth such as Fusarium moniliforme, Ventura inaequalis, Rhyzoctonia ciolaceae, Botrytis cinereae, Verticillium albo-atrum, Diplodia zeae, Fusarium oxysporum, Rhoma betae, Rhyzoctonia aderholdii, Aspergillus niger, Alternaria sobani, Botrytis allii, Aspergillus fumigatis, Fusarium culmorum, Penicillium cyclopium affecting potato, sugar beet, cotton seeds either in laboratory or field conditions. For testing it to the Petri dishes containing potato-dextrose agar the composition of the invention was.added at the concentration of an active principle of 0.01 % by mass. The Petri dishes containing the same agar culture were inoculated with a mycelium of phytopathogenic fungi. For control dishes the phytopathogenic fungi were inoculated on agar without using the composition of the invention. A fungicidal effect of the composition, according to the invention was tested in comparison with the known fungicidal compositions based on 2,3-dichloro-1,4-naphthoquinone, zinc N,N'-ethylene-bis-dithiocarbamate and tetramethylthiuram disulphide.

[7] = system: Botrytis cinereae; experiment: as above; type: cell-based; conditions: active principle 0.01 % by mass in potato-dextrose agar
Protocol: as §2

[8] = system: Venturia inaequalis; experiment: as above; type: cell-based; conditions: active principle 0.01 % by mass in potato-dextrose agar
Protocol: as §2

[9] = system: Fusarium moniliforme; experiment: as above; type: cell-based; conditions: active principle 0.01 % by mass in potato-dextrose agar
Protocol: as §2

[10] = system: Verticillium albo-atrum; experiment: as above; type: cell-based; conditions: active principle 0.01 % by mass in potato-dextrose agar
Protocol: as §2

[11] = system: domestic flies; experiment: Insecticidal activity on domestic flies, laboratory test (gauze boxes); type: in vivo; conditions: 0.1% solution in 5% aqueous glucose solution; 50 flies per box; count in 72 hours
Protocol: (§3) Based on the compound there was prepared an insecticidal composition in the form of a 0.1% solution thereof in a 5% aqueous glucose solution. The activity of the insecticidal composition, according to the invention was tested on domestic flies. To this end, into the gauze-made boxes of 10x10 cm in size (6 boxes) 6-7-day flies of both sexes were placed at the rate of 50 individuals per each box. Into 5 boxes there were placed Petri dishes with a 5% aqueous glycose solutiono An insecticidal activity of the composition, according to the invention, was tested in com- parison with an insecticidal composition based on 0,0-dimethyl(1-hydroxy-2,2,2-trichloroethyl)phosphonate. The tests were also conducted in living and production premises. For this, Petri dishes containing a 0.1% aqueous solution of the insecticide of the invention, to which a 5% glucose solution was added, were put at a rate of 2-3 dishes per 20 m^2. The activity of the composition, according to the invention, was evaluated by a direct count of dead insects in 72 hours or by using the adhesive tapes and counting the number of flies on the tape prior and after the test.

[12] = Solubility (qualitative); conditions: water, alcohols, acetone
[13] = system: domestic flies; experiment: Insecticidal activity on flies, large-scale test in living and production premises; type: in vivo; conditions: 0.1% aqueous solution with 5% glucose, 2-3 dishes per 20 m^2, living and production premises; 72 hours
Protocol: as §3

O=C1C(Cl)=C(Cl)C(=O)c2ccccc21 [2,3-dichloro--1,4-naphtho-quinone, 2,3-dichloro-1,4-naphthoquinone, reference compound]
Inhibition of growth of phytopathogenic fungi colonies, % Rhyzoctonia violaceae test field [1]: 32%
Inhibition of growth of phytopathogenic fungi colonies, % Botrytis cinereae test field [2]: 37%
Inhibition of growth of phytopathogenic fungi colonies, % Venturia inaequalis test field [3]: 39%
Inhibition of growth of phytopathogenic fungi colonies, % Fusatium monili-forme test field [4]: 54%
Inhibition of growth of phytopathogenic fungi colonies, % Verticillium albo--atrum test field [5]: 52%
Inhibition of growth of phytopathogenic fungi colonies, % Rhyzoctonia violaceae test laboratory [6]: 34%
Inhibition of growth of phytopathogenic fungi colonies, % Botrytis cinereae test laboratory [7]: 38%
Inhibition of growth of phytopathogenic fungi colonies, % Venturia inaequalis test laboratory [8]: 40%
Inhibition of growth of phytopathogenic fungi colonies, % Fusatium monili-forme test laboratory [9]: 55%
Inhibition of growth of phytopathogenic fungi colonies, % Verticillium albo--atrum test laboratory [10]: 53%

O=C(CCl)NP(=O)(NCc1ccccc1)NCc1ccccc1 [Example 1, chloroacetylamidophosphoric acid dibenzylamide]
Death of flies, % tests laboratory [11]: 94%
solubility [12]: soluble in water, alcohols acetone
Death of flies, % tests large-scale [13]: 93%

Cc1ccc(C)c(NP(=O)(NC(=O)c2ccc(Cl)cc2)Nc2cc(C)ccc2C)c1 [Example 2, di-2,5-dimethylanil-ide of para-chlorobenzoylamidophosphoric acid]
Death of flies, % tests laboratory [11]: 92%
solubility [12]: soluble in water, alcohols, acetone
Death of flies, % tests large-scale [13]: 91%

O=C(NP(=O)(Nc1cccc(Cl)c1)Nc1cccc(Cl)c1)c1ccc(Cl)cc1 [Example 3, di-meta- chloranilide pf para-chlorobenzoylamidophosphoric acid]
Death of flies, % tests laboratory [11]: 87%
solubility [12]: soluble in water, alcohols, acetone
Death of flies, % tests large-scale [13]: 86%

O=C(NP(=O)(Nc1ccccc1)Nc1ccccc1)c1ccc(Br)cc1 [Example 4, para-bromobenzoilamidophosphoric acid dianilide]
Death of flies, % tests laboratory [11]: 94%
solubility [12]: soluble in water, alcohols, acetone
Death of flies, % tests large-scale [13]: 93%
